According to publication PMC3483369 (Molecular cell, 2012):

Assays:
Format in all cases: biochemical
[1] = target: Gmk (guanylate kinase) (Bacillus subtilis, UniProt O34328); assay: PK/LDH coupled enzymatic assay with purified Gmk
[2] = target: HprT (Bacillus subtilis, UniProt P37472); assay: kinetic assay with purified HprT
[3] = target: GuaB (IMP dehydrogenase) (Bacillus subtilis, UniProt P21879); assay: kinetic assay with purified GuaB
Chain of GuaB (IMP dehydrogenase) (P21879 whole entry): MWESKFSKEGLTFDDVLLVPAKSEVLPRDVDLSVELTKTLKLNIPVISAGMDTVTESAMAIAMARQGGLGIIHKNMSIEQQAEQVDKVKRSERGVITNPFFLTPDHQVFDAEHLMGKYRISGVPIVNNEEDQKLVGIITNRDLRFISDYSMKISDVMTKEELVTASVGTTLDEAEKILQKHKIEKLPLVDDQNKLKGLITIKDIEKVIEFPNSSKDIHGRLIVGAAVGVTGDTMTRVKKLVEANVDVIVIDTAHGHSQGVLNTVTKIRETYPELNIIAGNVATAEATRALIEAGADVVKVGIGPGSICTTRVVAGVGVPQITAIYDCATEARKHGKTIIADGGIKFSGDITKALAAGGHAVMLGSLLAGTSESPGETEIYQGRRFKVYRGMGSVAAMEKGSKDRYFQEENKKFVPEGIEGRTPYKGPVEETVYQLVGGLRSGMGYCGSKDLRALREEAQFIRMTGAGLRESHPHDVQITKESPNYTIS

Chain of Gmk (guanylate kinase) (O34328 whole entry): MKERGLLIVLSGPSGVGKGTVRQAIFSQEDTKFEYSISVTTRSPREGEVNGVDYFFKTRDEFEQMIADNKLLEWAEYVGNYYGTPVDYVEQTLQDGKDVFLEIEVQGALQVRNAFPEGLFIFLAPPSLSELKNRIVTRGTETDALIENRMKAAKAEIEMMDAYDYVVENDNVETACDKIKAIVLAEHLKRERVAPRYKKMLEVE
Chain of HprT (P37472 whole entry): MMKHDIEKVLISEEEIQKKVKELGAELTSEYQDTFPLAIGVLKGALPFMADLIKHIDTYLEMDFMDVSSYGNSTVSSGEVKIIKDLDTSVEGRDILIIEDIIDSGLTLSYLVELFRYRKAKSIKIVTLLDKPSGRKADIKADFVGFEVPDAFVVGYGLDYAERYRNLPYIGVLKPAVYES

| Compound | IC50 [1] | IC50 [2] | IC50 [3] |
| --- | --- | --- | --- |
| Nc1nc2c(ncn2[C@@H]2O[C@H](COP(=O)(O)OP(=O)(O)OP(=O)(O)O)[C@@H](OP(=O)(O)OP(=O)(O)O)[C@H]2O)c(=O)[nH]1 [pppGpp] | ~20 µM | ~11 µM | ~300 µM |
| Nc1nc2c(ncn2[C@@H]2O[C@H](COP(=O)(O)OP(=O)(O)O)[C@@H](OP(=O)(O)OP(=O)(O)O)[C@H]2O)c(=O)[nH]1 [ppGpp] | ~20 µM | ~11 µM | ~500 µM |
